# Test results as given in patent US4438036A, “β-Lactam antibiotics their preparation and their use” (priority 1980, dated 1984).
# Read-outs that look alike come from different tables or passages of the source.
# Key:
# Assay in all cases: Antibacterial effectiveness in a standard microtitre test (MIC)
# Assay type in all cases: cell-based
# Bacillus subtilis A = test system: Bacillus subtilis A
# Description: (§1) Antibacterial effectiveness of the compounds of the Examples in a standard microtitre test.
# Citrobacter freundii E8 = test system: Citrobacter freundii E8
# Description: as §1
# Enterobacter cloacae N1 = test system: Enterobacter cloacae N1
# Description: as §1
# Escherichia coli 0111 = test system: Escherichia coli 0111
# Description: as §1
# Escherichia coli ESS = test system: Escherichia coli ESS
# Description: as §1
# Escherichia coli JT 39 = settings: JT39
# Description: as §1
# Escherichia coli JT 4 R+ = test system: Escherichia coli JT 4 R+
# Description: as §1
# Klebsiella aerogenes A = test system: Klebsiella aerogenes A
# Description: as §1
# [1] = test system: Klebsiella aerogenes Ba 95 R+
# Description: as §1
# Proteus mirabilis C977 = test system: Proteus mirabilis C977
# Description: as §1
# Proteus morganii I580 = settings: Morganella morganii
# Description: as §1
# Proteus rettgeri WM16 = settings: Providencia rettgeri
# Description: as §1
# Proteus vulgaris W091 = test system: Proteus vulgaris W091
# Description: as §1
# Pseudomonas aeruginosa A = test system: Pseudomonas aeruginosa A
# Description: as §1
# [2] = test system: Salmonella typhimurium CR10; settings: Salmonella enterica
# Description: as §1
# Serratia marcescens US20 = test system: Serratia marcescens US20
# Description: as §1
# Shigella sonnei MB 11967 = settings: MB11967
# Description: as §1
# [3] = test system: Staphylococcus aureus 1517
# Description: as §1
# [4] = test system: Staphylococcus aureus Oxford
# Description: as §1
# Streptococcus faecalis I = settings: Enterococcus faecalis
# Description: as §1
# [5] = test system: Staphylococcus aureus Russell
# Description: as §1
# [6] = test system: Streptococcus pneumoniae CN33
# Description: as §1
# [7] = test system: Streptococcus pyogenes CN10
# Description: as §1
# [8] = Bacillus subtilis A, read-out: MIC
# [9] = Proteus morganii I580, read-out: MIC
# [10] = Proteus rettgeri WM16, read-out: MIC
# [11] = Pseudomonas aeruginosa A, read-out: MIC
# [12] = Salmonella typhimurium CR10, read-out: MIC
# [13] = Staphylococcus aureus Oxford, read-out: MIC
# [14] = Streptococcus faecalis I, read-out: MIC
Structure (SMILES),MIC (Bacillus subtilis A; [8]),MIC (Citrobacter freundii E8; read-out: MIC),MIC (Enterobacter cloacae N1; read-out: MIC),MIC (Escherichia coli 0111),MIC (Escherichia coli ESS; Escherichia coli),MIC (Escherichia coli JT 39; Escherichia coli),MIC (Klebsiella aerogenes A; Klebsiella aerogenes),MIC (Proteus mirabilis C977; read-out: MIC),MIC (Proteus morganii I580; [9]),MIC (Proteus rettgeri WM16; [10]),MIC (Proteus vulgaris W091; read-out: MIC),MIC (Pseudomonas aeruginosa A; [11]),"MIC [2, 12]",MIC (Serratia marcescens US20; read-out: MIC),MIC (Shigella sonnei MB 11967),MIC ([3]; read-out: MIC),"MIC [4, 13]",MIC (Streptococcus faecalis I; [14]),MIC (Bacillus subtilis A; Bacillus subtilis),MIC (Citrobacter freundii E8),further results
"CC(=O)N/C=C/SC1=C(C(=O)O)N2C(=O)[C@H]([C@@H](C)N)[C@H]2C1 [Example 2, (5R,6R)-3-[E-2-acetamidoethenylthio]-6-[(R)-1-aminoethyl]-7-oxo-1-azabicyclo[3.2.0]hept-2-ene-2-carboxylic acid]",0.2 µg/mL,2 µg/mL,2 µg/mL,0.5 µg/mL,0.2 µg/mL,0.5 µg/mL,0.5 µg/mL,4 µg/mL,8 µg/mL,4 µg/mL,4 µg/mL,62 µg/mL,1 µg/mL,2 µg/mL,1 µg/mL,8 µg/mL,0.5 µg/mL,4 µg/mL,,,MIC (Escherichia coli JT 4 R+): 2 µg/mL; MIC [1]: 2 µg/mL
"CC(=O)N/C=C/SC1=C(C(=O)[O-])N2C(=O)[C@H]([C@@H](C)O)[C@H]2C1.[Na+] [Example 5, Sodium (5R,6S)-3-(E-2-acetamidoethenylthio)-6-[(R)-1-hydroxyethyl]-7-oxo-1-azabicyclo[3.2.0]hept-2-ene-2-carboxylate]",,,,≤ 0.5 µg/mL,> 0.2 µg/mL,0.2 µg/mL,0.5 µg/mL,,,,,,,,≤ 1 µg/mL,,,,0.2 µg/mL,0.5 µg/mL,MIC (Enterobacter cloacae N1): 1 µg/mL; MIC (Proteus mirabilis C977): 2 µg/mL; MIC (Proteus morganii I580; I580): 2 µg/mL; MIC (Proteus rettgeri WM16; WM16): 2 µg/mL; MIC (Proteus vulgaris W091): 2 µg/mL; MIC (Pseudomonas aeruginosa A; Pseudomonas aeruginosa): 125 µg/mL; MIC ([2]; TYPHIMURIUM): 0.5 µg/mL; MIC (Serratia marcescens US20): 2 µg/mL; MIC ([4]; Staphylococcus aureus): 0.2 µg/mL; MIC ([5]; Staphylococcus aureus): ≤ 0.5 µg/mL; MIC (Streptococcus faecalis I): 8 µg/mL; MIC [6]: 0.2 µg/mL; MIC [7]: 0.5 µg/mL
"CC(=O)N/C=C/SC1=C(C(=O)[O-])N2C(=O)[C@H]([C@@H](C)OC=O)[C@H]2C1.[Na+] [Example 6, Sodium (5R,6S)-3-(E-2-acetamidoethenylthio)-6-[(R)-1-formyloxyethyl]-7-oxo-1-azabicyclo[3.2.0]hept-2-ene-2-carboxylate]",,,,1.6 µg/mL,0.4 µg/mL,0.8 µg/mL,1.6 µg/mL,,,,,,,,1.6 µg/mL,,,,0.8 µg/mL,1.6 µg/mL,MIC (Enterobacter cloacae N1): 6.2 µg/mL; MIC (Proteus mirabilis C977): 6.2 µg/mL; MIC (Proteus morganii I580; I580): 6.2 µg/mL; MIC (Proteus rettgeri WM16; WM16): 3.1 µg/mL; MIC (Proteus vulgaris W091): 3.1 µg/mL; MIC (Pseudomonas aeruginosa A; Pseudomonas aeruginosa): 100 µg/mL; MIC ([2]; TYPHIMURIUM): 3.1 µg/mL; MIC (Serratia marcescens US20): 3.1 µg/mL; MIC [3]: 12.5 µg/mL; MIC ([4]; Staphylococcus aureus): 0.8 µg/mL; MIC ([5]; Staphylococcus aureus): 0.4 µg/mL; MIC (Streptococcus faecalis I): 12.5 µg/mL; MIC [6]: 0.1 µg/mL; MIC [7]: 0.2 µg/mL
"CC(=O)NCCSC1=C(C(=O)O)N2C(=O)[C@H]([C@@H](C)N)[C@H]2C1 [Example 8, (5R,6R)-3-(2-Acetamidoethylthio)-6-[(R)-1-aminoethyl]-7-oxo-1-azabicyclo[3.2.0]hept-2-ene-2-carboxylic acid]",4 µg/mL,16 µg/mL,16 µg/mL,16 µg/mL,,,,31 µg/mL,16 µg/mL,16 µg/mL,16 µg/mL,62 µg/mL,8 µg/mL,16 µg/mL,8 µg/mL,31 µg/mL,4 µg/mL,16 µg/mL,,,"MIC (Escherichia coli ESS; Escherichia coli ESS, read-out: MIC): 4 µg/mL; MIC (Escherichia coli JT 39; Escherichia coli JT 39, read-out: MIC): 8 µg/mL; MIC (Klebsiella aerogenes A; Klebsiella aerogenes A, read-out: MIC): 8 µg/mL; MIC ([5]; Staphylococcus aureus Russell, read-out: MIC): 2 µg/mL; MIC ([6]; read-out: MIC): 2 µg/mL; MIC ([7]; read-out: MIC): 2 µg/mL"
